Reference: patent US6864068B2, “Antifungal proteins” (Syngenta Limited, priority 1995, dated 2005)
Square brackets hold non-standard residues; d marks the D form. Ends that are not written are not given here. pGlu = O=C1CC[C@@H](C(=O)O)N1

Key:
[1] = system: Fusarium culmorum; assay: Liquid growth inhibition assay in half strength potato dextrose broth; type: cell-based
Experimental: Yeast cells transformed with either pTG3828, pMFprepro/Rs AFP2 or PMFpre/RsAFP2 were grown in selective SD medium until a saturated culture was obtained. To assess the antifungal activity of proteins secreted by the yeast cells, the supernatant of the yeast cultures was filtered (sterile 0.22 μm filter) and serially diluted in sterile water. Diluted samples (20 μl) were incubated in microtiter plate wells with 80 μl of half strength potato dextrose broth (Difco) containing spores 10^4 spores/ml) of Fusarium culmorum.
Growth of the fungi was monitored by microspectrophotometry as described by Broekaert et al (1990, FEMS Microbiol Lett, 69:55-60). Homogenates of yeast cells were prepared by spinning down 1 ml of a saturated yeast culture, suspending the cells in 200 μl of water, vortexing the cells in the presence of 0.2 g of glass beads (425-600 μm), and clearing the homogenate by centrifugation (1 min, 10000×g). Antifungal activity could only be detected in the culture medium of yeast cells transformed with pMFprepro/RsAFP2, which contained about 2 μg/ml of Rs-AFP2 equivalents. The activity of the homogenate of these cells, as well as that of culture media and cell homogenates of yeast cells transformed with pMFpre/RsAFP2 or pTG3828 transformed yeasts was below the detection limit (about 0.2 μg/ml of Rs-AFP2 equivalents).
The supernatant of 100 ml of a saturated culture of yeast transformed with pMFprepro/RsAFP2 (grown on minimal selective SD medium supplemented with 0.5% w/v of casamino acids) was centrifuged (4000 rpm, 10 min), and filtered (0.45 μm) to remove yeast cells and debris. Tris-HC1 (pH9) was added to the supernatant to a final concentration of 50 mM. The sample was loaded at a flow rate of 2 ml/min on an anion exchange chromatography column (Q-Sepharose Fast Flow, 20 ml bed volume, Pharmacia), on-line connected with a disposable reversed-phase C8 silica column (Bond Elut, 500 mg solid phase, Varian, Harbor City, USA). The antifungal activity was not retained on the Q-Sepharose matrix but bound to the C8 silica matrix. […] The latter eluate was dried in a rotating vacuum concentrator, redissolved in 0.5 ml 15% (v/v) acetonitrile containing 0.1% (v/v) TFA, and was loaded on a reversed-phase C2/C18 silica column (Pep-S, 5 μm beads, 0.4×25 cm, Pharmacia connected to a Waters 600 HPLC station pre-equilibriated with 15% acetonitrile containing 0.1% (v/v) TFA. After loading, the column was rinsed with the same buffer until the absorbance reached background level. The column was subsequently eluted with a 15 minute linear gradient from 15% to 50% acetonitrile containing 0.1% TFA at a flow rate of 1 ml/min. The eluate was monitored for proteins by on-line measurement of the absorbance at 280 nm. […] Twenty μl fractions were tested in a liquid growth inhibition assay: 20 μl samples were incubated in microtiter plate wells with 80 μl of half strength potato dextrose broth (Difco) containing 10^4 spores/ml of F culmorum; growth of the fungi was monitored by microspectrophotometry as described by Broekaert et al (1990, FEMS Microbiol Lett, 69: 55-60).
The specific antifungal activity of RPC-purified peak A material, as well as that of plant-derivable Rs-AFP2, was determined by measuring the percentage growth inhibition of F culmorum caused by serial dilutions of the protein samples. […]

[2] = system: F culmorum; assay: Growth inhibition in SMF with varying CaCl2 or KCl (FIG. 7); type: cell-based
Experimental: Their antifungal activity was determined in SMF with increasing Ca^2+ or K^+ concentration and compared with that of plant-derivable wild type Rs-AFP2 (isolated from seed) as well as yeast purified Rs-AFP2. FIG. 7 is a graph of the percentage growth inhibition of F culmorum caused by 10 μg/ml of yeast-purified Rs-AFP2 (SEQ ID NO: 20) (open circles), seed-purified Rs-AFP2 (SEQ ID NO: 77) (closed circles), Rs-AFP2/G9R (SEQ ID NO: 38) (squares) and Rs-AFP2/V39R (SEQ ID NO: 43) (triangles) in a medium consisting of SMF with varying concentrations of CaCl2 (panel A) and KCl (panel B).

[3] = system: various fungi; settings: cited from earlier work
[4] = system: Alternaria brassicicola; assay: Antifungal activity in three media differing in ionic strength (Table 3); type: cell-based; settings: 72 hours
Experimental: (§1) The antifungal activity of the G9R and V39R Rs-AFP2 isoforms was also assessed on a set of seven different phytopathogenic fungi in three media differing in ionic strength: SMF−, SMF plus 1 mM CaCl2 and 50 mM KCl, and SMF plus 5 mM CaCl2 and 50 mM KCl. The fungi tested were: Alternaria brassicicola, Ascochyta pisi, Botrytis cinerea, Fusarium culmorum, Nectria haematococca, Phoma betae and Verticillium dahliae.

[5] = system: Nectria haematococca; assay: as above; type: cell-based; settings: 72 hours
Experimental: as §1

[6] = system: Phoma betae; assay: as above; type: cell-based
Experimental: as §1

[7] = system: Fusarium culmorum; assay: as above; type: cell-based; settings: 96 hours
Experimental: as §1

[8] = system: Ascochyta pisi; assay: as above; type: cell-based; settings: 72 hours
Experimental: as §1

[9] = system: Verticillium dahliae; assay: as above; type: cell-based; settings: 96 hours
Experimental: as §1

[10] = system: Botrytis cinerea; assay: as above; type: cell-based; settings: 72 hours
Experimental: as §1

## SIα2: Sorghum bicolor α-amylase inhibitor 2, partially homologous to Rs-AFP2
[1]; assayed as described in Example 2
  antifungal activity: does not exhibit antifungal activity

## Rs-AFP2: plant-derivable wild-type antifungal protein 2 from Raphanus sativus (radish) seeds ([pGlu]KLCQRPSGTWSGVCGNNNACKNQCIRLEKARHGSCNYVFPAHKCICYFPC; cysteine pairing not given here; listed as Raphanus sativus) [reference compound]
[2]; SMF with 100 mM KCl, FIG. 7, 10 μg/ml
  activity in the presence of 100 mM KCl: drastically reduced
[2]; protein 10 μg/ml
  CaCl2 concentration at which fully active: ≤ 1.25 mM
[2]; protein 10 μg/ml, SMF with 5mM CaCl2
  growth inhibition in the presence of 5mM CaCl2: basically inactive
[1]; F culmorum, from dose-response curves of serial dilutions
  IC50 (concentration required for 50% growth inhibition): about 3 μg/ml
[1]; F culmorum, induction of multiple branches near the tips
  type of inhibition (hyphal morphology): characteristic morphological distortion of the fungal hyphae
[3]
  activity relative to Rs-AFP1 on various fungi: two- to thirty-fold more active
  salt-tolerance relative to Rs-AFP1: increased salt-tolerence
[4]
  IC50 VALUES, A brassicicola, SMF + 1 mM CaCl2/50 mM KCl: >50 µg/mL
  IC50 VALUES, A brassicicola, SMF + 5 mM CaCl2/50 mM KCl: >100 µg/mL
[4]; SMF−
  IC50 VALUES, A brassicicola, SMF: 3.2 µg/mL
[5]
  IC50 VALUES, N haematococca, SMF + 1 mM CaCl2/50 mM KCl: 48.0 µg/mL
  IC50 VALUES, N haematococca, SMF + 5 mM CaCl2/50 mM KCl: >100 µg/mL
[5]; SMF−
  IC50 VALUES, N haematococca, SMF: 2.0 µg/mL
[6]; 72 hours
  IC50 VALUES, P betae, SMF + 1 mM CaCl2/50 mM KCl: 14.0 µg/mL
  IC50 VALUES, P betae, SMF + 5 mM CaCl2/50 mM KCl: 27.0 µg/mL
[6]; SMF−, 72 hours
  IC50 VALUES, P betae, SMF: 0.9 µg/mL
[6]; Table 3 data
  activity against P betae compared with the G9R and V39R isoforms, in words: appeared to be more active
[7]
  IC50 VALUES, F culmorum, SMF + 1 mM CaCl2/50 mM KCl: 4.6 µg/mL
  IC50 VALUES, F culmorum, SMF + 5 mM CaCl2/50 mM KCl: 22.0 µg/mL
[7]; SMF−
  IC50 VALUES, F culmorum, SMF: 2.1 µg/mL
[8]
  IC50 VALUES, A pisi, SMF + 1 mM CaCl2/50 mM KCl: >50 µg/mL
  IC50 VALUES, A pisi, SMF + 5 mM CaCl2/50 mM KCl: >100 µg/mL
[8]; SMF−
  IC50 VALUES, A pisi, SMF: 1.9 µg/mL
[9]
  IC50 VALUES, V dahliae, SMF + 1 mM CaCl2/50 mM KCl: 11.0 µg/mL
  IC50 VALUES, V dahliae, SMF + 5 mM CaCl2/50 mM KCl: 50.0 µg/mL
[9]; SMF−
  IC50 VALUES, V dahliae, SMF: 1.0 µg/mL
[10]
  IC50 VALUES, B cinerea, SMF + 1 mM CaCl2/50 mM KCl: >50 µg/mL
  IC50 VALUES, B cinerea, SMF + 5 mM CaCl2/50 mM KCl: >100 µg/mL
[10]; SMF−
  IC50 VALUES, B cinerea, SMF: 1.8 µg/mL
